Measurements published in patent US20230157952A1, “METHOD FOR IMPROVING THE STABILITY OF A PHARMACEUTICAL COMPOSITION COMPRISING A HIGH PENETRATION DRUG, AND THE PHARMACEUTICAL COMPOSITION OBTAINED THEREFROM” (Techfields Inc., priority 2020, published 2023).
Values belong to the compound of their own block, whether it stands above or below them.

Test: Effect of temperature (and pH) on the stability of the solution (purity)
Format: physicochemical
Conditions: 7% solution in water

Purity(%) at day 0 (pH 1.0, day 0): 98.2 ± 0.3%
Purity(%) at day 21 (5° C.) (pH 1.0, day 21, 5° C.): 90.1 ± 0.3%
Purity(%) at day 21 (25° C.) (pH 1.0, day 21, 25° C.): 59.9 ± 0.3%
Purity(%) at day 21 (40° C.) (pH 1.0, day 21, 40° C.): 7.9 ± 0.3%
Purity (%) at day 21 (60° C.) (pH 1.0, day 21, 60° C.): 0%
Purity(%) at day 0 (pH 2.0, day 0): 98.4 ± 0.3%
Purity(%) at day 21 (5° C.) (pH 2.0, day 21, 5° C.): 93.0 ± 0.2%
Purity(%) at day 21 (25° C.) (pH 2.0, day 21, 25° C.): 74.8 ± 0.2%
Purity(%) at day 21 (40° C.) (pH 2.0, day 21, 40° C.): 17.6 ± 0.2%
Purity (%) at day 21 (60° C.) (pH 2.0, day 21, 60° C.): 0%
Purity(%) at day 0 (pH 3.0, day 0): 98.6 ± 0.1%
Purity(%) at day 21 (5° C.) (pH 3.0, day 21, 5° C.): 96.9 ± 0.2%
Purity(%) at day 21 (25° C.) (pH 3.0, day 21, 25° C.): 88.9 ± 0.2%
Purity(%) at day 21 (40° C.) (pH 3.0, day 21, 40° C.): 36.4 ± 0.2%
Purity (%) at day 21 (60° C.) (pH 3.0, day 21, 60° C.): 0%
Purity(%) at day 0 (pH 3.7, day 0): 98.7 ± 0.2%
Purity(%) at day 21 (5° C.) (pH 3.7, day 21, 5° C.): 97.8 ± 0.1%
Purity(%) at day 21 (25° C.) (pH 3.7, day 21, 25° C.): 94.5 ± 0.2%
Purity(%) at day 21 (40° C.) (pH 3.7, day 21, 40° C.): 50.6 ± 0.2%
Purity (%) at day 21 (60° C.) (pH 3.7, day 21, 60° C.): 7.3 ± 0.3%
Purity(%) at day 0 (pH 4.0, day 0): 98.8 ± 0.1%
Purity(%) at day 21 (5° C.) (pH 4.0, day 21, 5° C.): 97.9 ± 0.1%
Purity(%) at day 21 (25° C.) (pH 4.0, day 21, 25° C.): 95.1 ± 0.1%
Purity(%) at day 21 (40° C.) (pH 4.0, day 21, 40° C.): 53.2 ± 0.2%
Purity (%) at day 21 (60° C.) (pH 4.0, day 21, 60° C.): 20.2 ± 0.2%
Purity(%) at day 0 (pH 4.3, day 0): 98.8 ± 0.2%
Purity(%) at day 21 (5° C.) (pH 4.3, day 21, 5° C.): 97.9 ± 0.2%
Purity(%) at day 21 (25° C.) (pH 4.3, day 21, 25° C.): 95.2 ± 0.2%
Purity(%) at day 21 (40° C.) (pH 4.3, day 21, 40° C.): 54.8 ± 0.1%
Purity (%) at day 21 (60° C.) (pH 4.3, day 21, 60° C.): 21.8 ± 0.3%
Purity(%) at day 0 (pH 4.6, day 0): 98.7 ± 0.1%
Purity(%) at day 21 (5° C.) (pH 4.6, day 21, 5° C.): 97.8 ± 0.2%
Purity(%) at day 21 (25° C.) (pH 4.6, day 21, 25° C.): 95.0 ± 0.1%
Purity(%) at day 21 (40° C.) (pH 4.6, day 21, 40° C.): 54.7 ± 0.2%
Purity (%) at day 21 (60° C.) (pH 4.6, day 21, 60° C.): 15.5 ± 0.3%
Purity(%) at day 0 (pH 5.0, day 0): 98.6 ± 0.3%
Purity(%) at day 21 (5° C.) (pH 5.0, day 21, 5° C.): 96.3 ± 0.2%
Purity(%) at day 21 (25° C.) (pH 5.0, day 21, 25° C.): 89.8 ± 0.1%
Purity(%) at day 21 (40° C.) (pH 5.0, day 21, 40° C.): 30.1 ± 0.2%
Purity (%) at day 21 (60° C.) (pH 5.0, day 21, 60° C.): 3.2 ± 0.2%
Purity(%) at day 0 (pH 6.0, day 0): 98.4 ± 0.2%
Purity(%) at day 21 (5° C.) (pH 6.0, day 21, 5° C.): 93.4 ± 0.2%
Purity(%) at day 21 (25° C.) (pH 6.0, day 21, 25° C.): 73.9 ± 0.2%
Purity(%) at day 21 (40° C.) (pH 6.0, day 21, 40° C.): 16.5 ± 0.2%
Purity (%) at day 21 (60° C.) (pH 6.0, day 21, 60° C.): 0%
Purity(%) at day 0 (pH 7.0, day 0): 98.2 ± 0.3%
Purity(%) at day 21 (5° C.) (pH 7.0, day 21, 5° C.): 89.2 ± 0.3%
Purity(%) at day 21 (25° C.) (pH 7.0, day 21, 25° C.): 59.7 ± 0.2%
Purity(%) at day 21 (40° C.) (pH 7.0, day 21, 40° C.): 7.1 ± 0.3%
Purity (%) at day 21 (60° C.) (pH 7.0, day 21, 60° C.): 0%
Purity(%) at day 0 (pH 8.0, day 0): 98.0 ± 0.3%
Purity(%) at day 21 (5° C.) (pH 8.0, day 21, 5° C.): 77.1 ± 0.3%
Purity(%) at day 21 (25° C.) (pH 8.0, day 21, 25° C.): 40.8 ± 0.3%
Purity(%) at day 21 (40° C.) (pH 8.0, day 21, 40° C.): 0%
Purity (%) at day 21 (60° C.) (pH 8.0, day 21, 60° C.): 0%
Compound: CCN(CC)CCOC(=O)CCc1nc(-c2ccccc2)c(-c2ccccc2)o1.Cl

Purity(%) at day 0 (pH 1.0, day 0): 99.1%
Purity(%) at day 14 (5° C.) (pH 1.0, day 14, 5° C.): 90.2%
Purity(%) at day 14 (25° C.) (pH 1.0, day 14, 25° C.): 61.2%
Purity(%) at day 14 (40° C.) (pH 1.0, day 14, 40° C.): 0%
Purity (%) at day 14 (60° C.) (pH 1.0, day 14, 60° C.): 0%
Purity(%) at day 0 (pH 2.0, day 0): 99.1%
Purity(%) at day 14 (5° C.) (pH 2.0, day 14, 5° C.): 95.8%
Purity(%) at day 14 (25° C.) (pH 2.0, day 14, 25° C.): 82.7%
Purity(%) at day 14 (40° C.) (pH 2.0, day 14, 40° C.): 0%
Purity (%) at day 14 (60° C.) (pH 2.0, day 14, 60° C.): 0%
Purity(%) at day 0 (pH 3.0, day 0): 99.1%
Purity(%) at day 14 (5° C.) (pH 3.0, day 14, 5° C.): 97.5%
Purity(%) at day 14 (25° C.) (pH 3.0, day 14, 25° C.): 87.7%
Purity(%) at day 14 (40° C.) (pH 3.0, day 14, 40° C.): 2.3%
Purity (%) at day 14 (60° C.) (pH 3.0, day 14, 60° C.): 0%
Purity(%) at day 0 (pH 3.7, day 0): 99.1%
Purity(%) at day 14 (5° C.) (pH 3.7, day 14, 5° C.): 98.2%
Purity(%) at day 14 (25° C.) (pH 3.7, day 14, 25° C.): 95.5%
Purity(%) at day 14 (40° C.) (pH 3.7, day 14, 40° C.): 14.1%
Purity (%) at day 14 (60° C.) (pH 3.7, day 14, 60° C.): 0%
Purity(%) at day 0 (pH 4.0, day 0): 99.1%
Purity(%) at day 14 (5° C.) (pH 4.0, day 14, 5° C.): 98.4%
Purity(%) at day 14 (25° C.) (pH 4.0, day 14, 25° C.): 95.9%
Purity(%) at day 14 (40° C.) (pH 4.0, day 14, 40° C.): 14.3%
Purity (%) at day 14 (60° C.) (pH 4.0, day 14, 60° C.): 0%
Purity(%) at day 0 (pH 4.3, day 0): 99.1%
Purity(%) at day 14 (5° C.) (pH 4.3, day 14, 5° C.): 98.4%
Purity(%) at day 14 (25° C.) (pH 4.3, day 14, 25° C.): 95.8%
Purity(%) at day 14 (40° C.) (pH 4.3, day 14, 40° C.): 12.8%
Purity (%) at day 14 (60° C.) (pH 4.3, day 14, 60° C.): 0%
Purity(%) at day 0 (pH 4.6, day 0): 99.1%
Purity(%) at day 14 (5° C.) (pH 4.6, day 14, 5° C.): 98.3%
Purity(%) at day 14 (25° C.) (pH 4.6, day 14, 25° C.): 95.6%
Purity(%) at day 14 (40° C.) (pH 4.6, day 14, 40° C.): 3.4%
Purity (%) at day 14 (60° C.) (pH 4.6, day 14, 60° C.): 0%
Purity(%) at day 0 (pH 5.0, day 0): 99.1%
Purity(%) at day 14 (5° C.) (pH 5.0, day 14, 5° C.): 97.0%
Purity(%) at day 14 (25° C.) (pH 5.0, day 14, 25° C.): 91.0%
Purity(%) at day 14 (40° C.) (pH 5.0, day 14, 40° C.): 0.9%
Purity (%) at day 14 (60° C.) (pH 5.0, day 14, 60° C.): 0%
Purity(%) at day 0 (pH 6.0, day 0): 99.1%
Purity(%) at day 14 (5° C.) (pH 6.0, day 14, 5° C.): 91.6%
Purity(%) at day 14 (25° C.) (pH 6.0, day 14, 25° C.): 84.1%
Purity(%) at day 14 (40° C.) (pH 6.0, day 14, 40° C.): 0%
Purity (%) at day 14 (60° C.) (pH 6.0, day 14, 60° C.): 0%
Purity(%) at day 0 (pH 7.0, day 0): 99.1%
Purity(%) at day 14 (5° C.) (pH 7.0, day 14, 5° C.): 87.3%
Purity(%) at day 14 (25° C.) (pH 7.0, day 14, 25° C.): 60.3%
Purity(%) at day 14 (40° C.) (pH 7.0, day 14, 40° C.): 0%
Purity (%) at day 14 (60° C.) (pH 7.0, day 14, 60° C.): 0%
Purity(%) at day 0 (pH 8.0, day 0): 99.1%
Purity(%) at day 14 (5° C.) (pH 8.0, day 14, 5° C.): 57.3%
Purity(%) at day 14 (25° C.) (pH 8.0, day 14, 25° C.): 21.2%
Purity(%) at day 14 (40° C.) (pH 8.0, day 14, 40° C.): 0%
Purity (%) at day 14 (60° C.) (pH 8.0, day 14, 60° C.): 0%
Compound: CCN(CC)CCOC(=O)c1cc(-c2ccc(F)cc2F)ccc1OC(C)=O.Cl
